According to patent US20160002247A1, “8-SUBSTITUTED IMIDAZOPYRIMIDINONE DERIVATIVE HAVING AUTOTAXIN INHIBITORY ACTIVITY” (THE UNIVERSITY OF TOKYO, priority 2013, published 2016):
pIC50: −log10 of the molar value.

The compounds below were run against T1, Mouse autotaxin enzyme (Mus musculus, UniProt Q9R1E6) (assay: Evaluation of autotaxin inhibitor, Method A (Test Example 1): TG-mTMP fluorescence). Conditions: Assay Method: Method A (Test Example 1); read-out: Inhibitory Activity (Enzyme Inhibitory Activity, IC50).
T1 construct: purchased R&D System
Assay type: biochemical
Procedure: (Method A) Evaluation of Autotaxin Inhibitor
Solution A containing 25 mM Tris-HCl buffer (pH7.5), 100 mM NaCl, 5 mM MgCl2 and 0.1% BSA was prepared. Mouse autotaxin enzyme (purchased from R&D System) was diluted with Solution A, and 5 μL of which was added to a solution of test compound in DMSO. Furthermore, 5 μl of 0.5 μM TG-mTMP in Solution A was added and allowed to react at room temperature for 2 hours. 5 μl of 150 mM EDTA in Solution A was added to quench the reaction, and a fluorescent dye TokyoGreen, which was produced by the reaction, was detected. The fluorescence was detected using ViewLux (PerkinElmer, Inc.) with an excitation wavelength of 480 nm and a fluorescence wavelength of 540 nm.
The percent inhibition of the test compound was calculated by assuming the sample with no test compound as 0% inhibition and the sample with no enzyme as 100% inhibition, and the percent inhibitions at different concentrations of the test compound were plotted to obtain a concentration-dependent curve.

| pIC50 | Compound |
| --- | --- |
| 6.00 to 7.00 | Cc1cc(=O)n2cc(-c3ccc(Cl)cc3)nc2n1C [Compound 4] |
| 7.00 to 8.00 | CCn1c(C)cc(=O)n2cc(-c3ccc(Cl)cc3)nc12 [Compound 5] |
| 7.00 to 8.00 | CCCn1c(C)cc(=O)n2cc(-c3ccc(Cl)cc3)nc12 [Compound 6] |
| 7.00 to 8.00 | CCCCCCCn1c(C)cc(=O)n2cc(-c3ccc(Cl)cc3)nc12 [Compound 9] |
| 7.00 to 8.00 | CCCCCCCCn1c(C)cc(=O)n2cc(-c3ccc(Cl)cc3)nc12 [Compound 10] |
| 6.00 to 7.00 | CCCCCCCCCn1c(C)cc(=O)n2cc(-c3ccc(Cl)cc3)nc12 [Compound 11] |
| 6.00 to 7.00 | CCCCCCCCCCn1c(C)cc(=O)n2cc(-c3ccc(Cl)cc3)nc12 [Compound 12] |
| 7.00 to 8.00 | Cc1cc(=O)n2cc(-c3ccc(Cl)cc3)nc2n1C1CCCCC1 [Compound 14] |
| 7.00 to 8.00 | C=CCn1c(C)cc(=O)n2cc(-c3ccc(Cl)cc3)nc12 [Compound 15] |
| 7.00 to 8.00 | C#CCn1c(C)cc(=O)n2cc(-c3ccc(Cl)cc3)nc12 [Compound 16] |
| 7.00 to 8.00 | CCCCCn1c(C)cc(=O)n2cc(-c3ccc(F)cc3)nc12 [Compound 17] |
| 7.00 to 8.00 | CCCCCn1c(C)cc(=O)n2cc(-c3ccc(C)cc3)nc12 [Compound 19] |
| 7.00 to 8.00 | COC(=O)Cn1c(C)cc(=O)n2cc(-c3ccc(Cl)cc3)nc12 [Compound 21] |
| 7.00 to 8.00 | Cc1cc(=O)n2cc(-c3ccc(Cl)cc3)nc2n1CC(=O)OCc1ccccc1 [Compound 22] |
| 7.00 to 8.00 | Cc1cc(=O)n2cc(-c3ccc(Cl)cc3)nc2n1CC(=O)OC(C)(C)C [Compound 23] |
| 6.00 to 7.00 | CCNC(=O)Cn1c(C)cc(=O)n2cc(-c3ccc(Cl)cc3)nc12 [Compound 24] |
| 6.00 to 7.00 | CCN(C)C(=O)Cn1c(C)cc(=O)n2cc(-c3ccc(Cl)cc3)nc12 [Compound 25] |
| < 6.00 | COCCOCCOCCn1c(C)cc(=O)n2cc(-c3ccc(Cl)cc3)nc12 [Compound 27] |
| 7.00 to 8.00 | CCOC(=O)Cn1c(C)cc(=O)n2cc(-c3ccc(F)cc3)nc12 [Compound 30] |
| 7.00 to 8.00 | CCOC(=O)Cn1c(C)cc(=O)n2cc(-c3ccc(Br)cc3)nc12 [Compound 31] |
| 7.00 to 8.00 | CCOC(=O)Cn1c(C)cc(=O)n2cc(-c3ccc(OC)cc3)nc12 [Compound 32] |
| < 6.00 | CCOC(=O)Cn1c(C)cc(=O)n2cc(-c3cccc(Br)c3)nc12 [Compound 33] |
| 7.00 to 8.00 | CCOC(=O)Cn1c(C)cc(=O)n2cc(-c3ccc(Cl)c(Cl)c3)nc12 [Compound 34] |
| 7.00 to 8.00 | CCOC(=O)Cn1c(C)cc(=O)n2cc(-c3ccccc3)nc12 [Compound 35] |
| 7.00 to 8.00 | CCOC(=O)Cn1c(C)cc(=O)n2cc(-c3ccc([N+](=O)[O-])cc3)nc12 [Compound 36] |
| 6.00 to 7.00 | CCOC(=O)Cn1c(C)cc(=O)n2cc(-c3cccc([N+](=O)[O-])c3)nc12 [Compound 37] |
| < 6.00 | CCOC(=O)Cn1c(C)cc(=O)n2cc(-c3ccc(N)cc3)nc12 [Compound 38] |
| < 6.00 | CCOC(=O)Cn1c(C)cc(=O)n2cc(-c3cccc(N)c3)nc12 [Compound 39] |
| 7.00 to 8.00 | CCOC(=O)Cn1c(C)cc(=O)n2cc(-c3ccc(I)cc3)nc12 [Compound 40] |
